Assay results: patent publication US20260200897A1, “4-((5-(3-(4-(PYRIDIN-2-YL)CYCLOPENTYL)-1H-PYRAZOL-3-YL)AMINO)-BENZENESULFONAMIDE DERIVATIVES AND SIMILAR COMPOUNDS AS CDK INHIBITORS FOR THE TREATMENT OF CANCER” (BeOne Medicines I GmbH, priority 2023, published 2026)
pIC50: −log10 of the molar value.

What was measured:
[1] = biological target: T1, CDK1/Cyclin B1 (Homo sapiens, UniProt P06493); test: CDK1/Cyclin B1 TR-FRET biochemical assay, 0.015 mM ATP; settings: 0.15 μM Rb (Ser780)-biotin substrate, 120 min reaction, Table 1
T1 sequence (P06493 whole entry): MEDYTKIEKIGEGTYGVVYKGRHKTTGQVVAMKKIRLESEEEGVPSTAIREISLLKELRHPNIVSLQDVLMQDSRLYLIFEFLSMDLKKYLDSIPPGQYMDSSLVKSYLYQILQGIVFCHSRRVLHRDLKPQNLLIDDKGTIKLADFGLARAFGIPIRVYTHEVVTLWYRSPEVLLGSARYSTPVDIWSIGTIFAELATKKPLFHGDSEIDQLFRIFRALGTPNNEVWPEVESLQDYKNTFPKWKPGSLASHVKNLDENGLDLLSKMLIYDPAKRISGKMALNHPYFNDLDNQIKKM
T1 sequence (P14635 whole entry partner): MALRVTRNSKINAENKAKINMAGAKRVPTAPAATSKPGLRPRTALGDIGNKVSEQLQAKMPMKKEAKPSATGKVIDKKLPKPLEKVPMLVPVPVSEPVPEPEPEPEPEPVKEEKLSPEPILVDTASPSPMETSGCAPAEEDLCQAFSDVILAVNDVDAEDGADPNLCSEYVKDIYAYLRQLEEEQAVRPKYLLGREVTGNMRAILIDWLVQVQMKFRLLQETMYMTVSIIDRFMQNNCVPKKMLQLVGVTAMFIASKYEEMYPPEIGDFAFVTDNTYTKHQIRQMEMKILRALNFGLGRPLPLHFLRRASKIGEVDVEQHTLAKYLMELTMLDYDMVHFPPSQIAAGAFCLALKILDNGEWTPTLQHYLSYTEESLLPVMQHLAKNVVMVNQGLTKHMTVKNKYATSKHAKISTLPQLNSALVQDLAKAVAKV
Procedure: (§1) Compounds disclosed herein were tested for inhibition of CDK2/Cyclin E1 or CDK1/Cyclin B1 kinase in an assay based on the time-resolved fluorescence-resonance energy transfer (TR-FRET) methodology. The assay was carried out in 384-well low volume black plates in a reaction mixture containing CDK2/Cyclin E1 or CDK1/Cyclin B1, 0.060 mM ATP for CDK2/Cyclin E1 or 0.015 mM ATP for CDK1/Cyclin B1, 0.15 μM Rb (Ser780)-biotin substrate and 0-10 μM compound in buffer containing 50 mM HEPES pH7.0, 0.02% NaN3, 0.01% BSA, 0.1 mM Orthovanadate, 50 mM MgCl2, 1 mM DTT and 0.005% Tween-20. The kinase was incubated with compound for 60 minutes at room temperature and the reaction was initiated by the addition of ATP and Rb (Ser780)-biotin substrate. After reaction at room temperature for 120 minutes, an equal volume of stop/detection solution was added according to the manufacture's instruction (Cisbio Bioassays). The stop/detection solution contained Streptavidin-XL665 and Anti-pRb (Ser780) mAb-Eu Cryptate in Detection buffer (Cisbio Bioassays). Plates were incubated at room temperature for 60 minutes, and the TR-FRET signals (ex337 nm, em665 nm/620 nm) were recorded on a PHERAstar FSX plate reader (BMG Labtech). The inhibition percentage of CDK2/Cyclin E1 or CDK1/Cyclin B1 kinase activity in presence of increasing concentrations of compounds was calculated based on the ratio of fluorescence at 665 nm to that at 620 nm. The IC50 for each compound was derived from fitting the data to the four-parameter logistic equation by Dotmatics.

[2] = biological target: T2, CDK2/Cyclin E1 (Homo sapiens, UniProt P24941); test: CDK2/Cyclin E1 TR-FRET biochemical assay, 0.060 mM ATP; settings: 0.15 μM Rb (Ser780)-biotin substrate, 120 min reaction, Table 1
Procedure: as §1

[3] = biological target: T1, CDK1/Cyclin B1; test: CDK1/Cyclin B1 TR-FRET biochemical assay, 1 mM ATP; settings: 0.15 μM Rb (Ser780)-biotin substrate, 90 min reaction, Table 2
[4] = biological target: T2, CDK2/Cyclin E1; test: CDK2/Cyclin E1 TR-FRET biochemical assay, 1 mM ATP; settings: 0.15 μM Rb (Ser780)-biotin substrate, 90 min reaction, Table 2

pIC50 [1]	pIC50 [2]	pIC50 [3]	pIC50 [4]	Structure (SMILES)
6.85	7.85	–	–	O=c1cccnn1[C@H]1CC[C@@H](c2cc(Nc3ccc4c(c3F)CNS4(=O)=O)n[nH]2)C1 (relative stereo) [Example 21, cis-2-(3-(3-((4-fluoro-1,1-dioxido-2,3-dihydrobenzo[d]isothiazol-5-yl)amino)-1H-pyrazol-5-yl)cyclopentyl)pyridazin-3 (2H)-one]
6.62	7.37	–	–	O=S1(=O)NCc2c1ccc(Nc1cc([C@H]3CC[C@@H](Oc4cccnn4)C3)[nH]n1)c2F (relative stereo) [Example 22, cis-4-fluoro-5-((5-(3-(pyridazin-3-yloxy)cyclopentyl)-1H-pyrazol-3-yl)amino)-2,3-dihydrobenzo[d]isothiazole 1,1-dioxide]
6.28	6.88	–	–	Cc1ccnn([C@H]2CC[C@@H](c3cc(Nc4ccc5c(c4F)CNS5(=O)=O)n[nH]3)C2)c1=O (relative stereo) [Example 23, cis-2-(3-(3-((4-fluoro-1,1-dioxido-2,3-dihydrobenzo[d]isothiazol-5-yl)amino)-1H-pyrazol-5-yl)cyclopentyl)-4-methylpyridazin-3 (2H)-one]
7.31	8.24	–	–	Cc1ccnnc1O[C@@H]1CC[C@H](c2cc(Nc3ccc4c(c3F)CNS4(=O)=O)n[nH]2)C1 (relative stereo) [Example 24, cis-4-fluoro-5-((5-(3-((4-methylpyridazin-3-yl)oxy)cyclopentyl)-1H-pyrazol-3-yl)amino)-2,3-dihydrobenzo[d]isothiazole 1,1-dioxide]
7.96	8.85	–	–	CCc1ccnnc1O[C@@H]1CC[C@H](c2cc(Nc3ccc4c(c3F)CNS4(=O)=O)n[nH]2)C1 (relative stereo) [Example 25, cis-5-((5-(3-((4-ethylpyridazin-3-yl)oxy)cyclopentyl)-1H-pyrazol-3-yl)amino)-4-fluoro-2,3-dihydrobenzo[d]isothiazole 1,1-dioxide]
5.77	6.85	–	–	CC(C)c1ccnn([C@H]2CC[C@@H](c3cc(Nc4ccc5c(c4F)CNS5(=O)=O)n[nH]3)C2)c1=O (relative stereo) [Example 26, cis-2-(3-(3-((4-fluoro-1,1-dioxido-2,3-dihydrobenzo[d]isothiazol-5-yl)amino)-1H-pyrazol-5-yl)cyclopentyl)-4-isopropylpyridazin-3 (2H)-one]
8.43	9.15	–	–	CC(C)c1ccnnc1O[C@@H]1CC[C@H](c2cc(Nc3ccc4c(c3F)CNS4(=O)=O)n[nH]2)C1 (relative stereo) [Example 27, cis-4-fluoro-5-((5-(3-((4-isopropylpyridazin-3-yl)oxy)cyclopentyl)-1H-pyrazol-3-yl)amino)-2,3-dihydrobenzo[d]isothiazole 1,1-dioxide]
5.91	6.89	–	–	O=c1c(C2CC2)ccnn1[C@H]1CC[C@@H](c2cc(Nc3ccc4c(c3F)CNS4(=O)=O)n[nH]2)C1 (relative stereo) [Example 28, cis-4-cyclopropyl-2-(3-(3-((4-fluoro-1,1-dioxido-2,3-dihydrobenzo[d]isothiazol-5-yl)amino)-1H-pyrazol-5-yl)cyclopentyl)pyridazin-3 (2H)-one]
7.46	8.54	–	–	O=S1(=O)NCc2c1ccc(Nc1cc([C@H]3CC[C@@H](Oc4nnccc4C4CC4)C3)[nH]n1)c2F (relative stereo) [Example 29, cis-5-((5-(3-((4-cyclopropylpyridazin-3-yl)oxy)cyclopentyl)-1H-pyrazol-3-yl)amino)-4-fluoro-2,3-dihydrobenzo[d]isothiazole 1,1-dioxide]
< 5.00	5.68	–	–	O=c1c(-c2ccccc2)ccnn1[C@H]1CC[C@@H](c2cc(Nc3ccc4c(c3F)CNS4(=O)=O)n[nH]2)C1 (relative stereo) [Example 30, cis-2-(3-(3-((4-fluoro-1,1-dioxido-2,3-dihydrobenzo[d]isothiazol-5-yl)amino)-1H-pyrazol-5-yl)cyclopentyl)-4-phenylpyridazin-3 (2H)-one]
7.14	8.07	–	–	O=S1(=O)NCc2c1ccc(Nc1cc([C@H]3CC[C@@H](Oc4nnccc4-c4ccccc4)C3)[nH]n1)c2F (relative stereo) [Example 31, cis-4-fluoro-5-((5-(3-((4-phenylpyridazin-3-yl)oxy)cyclopentyl)-1H-pyrazol-3-yl)amino)-2,3-dihydrobenzo[d]isothiazole 1,1-dioxide]
5.45	7.32	–	–	C=C(C)c1cnn([C@H]2CC[C@@H](c3cc(Nc4ccc5c(c4F)CNS5(=O)=O)n[nH]3)C2)c(=O)c1 (relative stereo) [Example 32, cis-2-(3-(3-((4-fluoro-1,1-dioxido-2,3-dihydrobenzo[d]isothiazol-5-yl)amino)-1H-pyrazol-5-yl)cyclopentyl)-5-(prop-1-en-2-yl)pyridazin-3 (2H)-one]
6.15	8.12	–	–	CC(C)c1cnn([C@H]2CC[C@@H](c3cc(Nc4ccc5c(c4F)CNS5(=O)=O)n[nH]3)C2)c(=O)c1 (relative stereo) [Example 33, cis-2-(3-(3-((4-fluoro-1,1-dioxido-2,3-dihydrobenzo[d]isothiazol-5-yl)amino)-1H-pyrazol-5-yl)cyclopentyl)-5-isopropylpyridazin-3 (2H)-one]
5.81	7.20	–	–	O=c1c2ccncc2cnn1[C@H]1CC[C@@H](c2cc(Nc3ccc4c(c3F)CNS4(=O)=O)n[nH]2)C1 (relative stereo) [Example 34, cis-2-(3-(3-((4-fluoro-1,1-dioxido-2,3-dihydrobenzo[d]isothiazol-5-yl)amino)-1H-pyrazol-5-yl)cyclopentyl)pyrido[3,4-d]pyridazin-1 (2H)-one]
7.46	8.59	–	–	O=S1(=O)NCc2c1ccc(Nc1cc([C@H]3CC[C@@H](Oc4nnccc4C4CCC4)C3)[nH]n1)c2F (relative stereo) [Example 35, cis-5-((5-(3-((4-cyclobutylpyridazin-3-yl)oxy)cyclopentyl)-1H-pyrazol-3-yl)amino)-4-fluoro-2,3-dihydrobenzo[d]isothiazole 1,1-dioxide]
5.63	7.26	–	–	O=S1(=O)NCc2c1ccc(Nc1cc([C@H]3CC[C@@H](Oc4cccnc4)C3)[nH]n1)c2F (relative stereo) [Example 39, cis-4-fluoro-5-((5-(3-(pyridin-3-yloxy)cyclopentyl)-1H-pyrazol-3-yl)amino)-2,3-dihydrobenzo[d]isothiazole 1,1-dioxide]
6.26	7.72	–	–	Cc1ncccc1O[C@@H]1CC[C@H](c2cc(Nc3ccc4c(c3F)CNS4(=O)=O)n[nH]2)C1 (relative stereo) [Example 40, cis-4-fluoro-5-((5-(3-((2-methylpyridin-3-yl)oxy)cyclopentyl)-1H-pyrazol-3-yl)amino)-2,3-dihydrobenzo[d]isothiazole 1,1-dioxide]
6.32	7.48	–	–	O=S1(=O)NCc2c1ccc(Nc1cc([C@H]3CC[C@@H](Oc4cnccc4C4CC4)C3)[nH]n1)c2F (relative stereo) [Example 41, cis-5-((5-(3-((4-cyclopropylpyridin-3-yl)oxy)cyclopentyl)-1H-pyrazol-3-yl)amino)-4-fluoro-2,3-dihydrobenzo[d]isothiazole 1,1-dioxide]
6.27	6.77	–	–	Cc1ccncc1O[C@@H]1CC[C@H](c2cc(Nc3ccc4c(c3F)CNS4(=O)=O)n[nH]2)C1 (relative stereo) [Example 42, cis-4-fluoro-5-((5-(3-((4-methylpyridin-3-yl)oxy)cyclopentyl)-1H-pyrazol-3-yl)amino)-2,3-dihydrobenzo[d]isothiazole 1,1-dioxide]
7.24	8.37	–	–	C=C(C)c1ccncc1O[C@@H]1CC[C@H](c2cc(Nc3ccc4c(c3F)CNS4(=O)=O)n[nH]2)C1 (relative stereo) [Example 43, cis-4-fluoro-5-((5-(3-((4-(prop-1-en-2-yl)pyridin-3-yl)oxy)cyclopentyl)-1H-pyrazol-3-yl)amino)-2,3-dihydrobenzo[d]isothiazole 1,1-dioxide]
5.08	5.85	–	–	CC(C)c1cncc(O[C@@H]2CC[C@H](c3cc(Nc4ccc5c(c4F)CNS5(=O)=O)n[nH]3)C2)c1 (relative stereo) [Example 44, cis-4-fluoro-5-((5-(3-((5-isopropylpyridin-3-yl)oxy)cyclopentyl)-1H-pyrazol-3-yl)amino)-2,3-dihydrobenzo[d]isothiazole 1,1-dioxide]
–	–	6.27	8.82	CC(C)(O)c1cnc(C2CCC(c3cc(Nc4ccc5c(c4F)CS(=O)(=O)C5)n[nH]3)C2)o1 (centres unmarked) [Example 179, 4-fluoro-5-((5-(3-(5-(2-hydroxypropan-2-yl)oxazol-2-yl)cyclopentyl)-1H-pyrazol-3-yl)amino)-1,3-dihydrobenzo[c]thiophene 2,2-dioxide]
